ChEMBL document CHEMBL4316626, “N-Acyl pyrazoles: Effective and tunable inhibitors of serine hydrolases” (Bioorg Med Chem, 2019)

Key:
Mus musculus = organism: Mus musculus; assay: Selectivity ratio of IC50 for inhibition of FP-rhodamine probe binding to ABHD6 in mouse brain membrane proteome to IC50 for inhibition of FP-rhodamine probe binding to MGLL in mouse brain membrane proteome; assay type: cell membranes
[1] = target: T1, Monoacylglycerol lipase ABHD6 (Mus musculus, UniProt Q8R2Y0); assay: Inhibition of FP-rhodamine probe binding to ABHD6 in mouse brain membrane proteome preincubated for 1 hr followed by FP-rhodamine addition and measured after 30 mins by SDS-PAGE based fluorescence assay; assay type: cell membranes
T1 sequence (Q8R2Y0 whole entry): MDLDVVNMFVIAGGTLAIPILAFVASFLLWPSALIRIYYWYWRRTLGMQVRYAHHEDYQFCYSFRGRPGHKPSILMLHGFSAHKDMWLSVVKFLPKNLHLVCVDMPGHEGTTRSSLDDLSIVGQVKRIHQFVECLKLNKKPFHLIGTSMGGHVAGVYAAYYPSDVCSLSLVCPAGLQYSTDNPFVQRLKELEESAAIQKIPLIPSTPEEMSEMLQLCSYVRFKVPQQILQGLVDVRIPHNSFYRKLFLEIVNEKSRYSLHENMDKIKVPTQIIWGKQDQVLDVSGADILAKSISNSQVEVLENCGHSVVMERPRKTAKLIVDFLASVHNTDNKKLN

[2] = target: T2, Fatty-acid amide hydrolase 1 (Mus musculus, UniProt O08914); assay: Inhibition of FP-rhodamine probe binding to FAAH in mouse brain membrane proteome preincubated for 1 hr followed by FP-rhodamine addition and measured after 30 mins by SDS-PAGE based fluorescence assay; assay type: cell membranes
T2 sequence (O08914 whole entry): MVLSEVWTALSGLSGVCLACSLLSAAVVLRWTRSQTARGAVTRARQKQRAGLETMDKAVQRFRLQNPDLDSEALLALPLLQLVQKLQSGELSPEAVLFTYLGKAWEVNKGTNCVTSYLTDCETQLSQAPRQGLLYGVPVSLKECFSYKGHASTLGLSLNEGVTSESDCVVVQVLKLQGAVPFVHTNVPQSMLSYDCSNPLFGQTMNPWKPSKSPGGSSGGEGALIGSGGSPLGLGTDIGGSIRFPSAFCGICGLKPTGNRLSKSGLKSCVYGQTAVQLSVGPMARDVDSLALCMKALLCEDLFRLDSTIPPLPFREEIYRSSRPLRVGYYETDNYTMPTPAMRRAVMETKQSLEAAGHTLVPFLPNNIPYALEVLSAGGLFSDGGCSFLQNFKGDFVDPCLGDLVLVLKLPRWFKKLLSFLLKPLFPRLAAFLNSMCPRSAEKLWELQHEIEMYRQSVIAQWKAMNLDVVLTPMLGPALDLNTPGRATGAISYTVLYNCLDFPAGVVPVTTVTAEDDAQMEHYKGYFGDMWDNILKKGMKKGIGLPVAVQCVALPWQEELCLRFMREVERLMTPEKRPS

[3] = target: T3, Neutral cholesterol ester hydrolase 1 (Mus musculus, UniProt Q8BLF1); assay: Inhibition of FP-rhodamine probe binding to KIAA1363 in mouse brain membrane proteome preincubated for 1 hr followed by FP-rhodamine addition and measured after 30 mins by SDS-PAGE based fluorescence assay; assay type: cell membranes
T3 sequence (Q8BLF1 whole entry): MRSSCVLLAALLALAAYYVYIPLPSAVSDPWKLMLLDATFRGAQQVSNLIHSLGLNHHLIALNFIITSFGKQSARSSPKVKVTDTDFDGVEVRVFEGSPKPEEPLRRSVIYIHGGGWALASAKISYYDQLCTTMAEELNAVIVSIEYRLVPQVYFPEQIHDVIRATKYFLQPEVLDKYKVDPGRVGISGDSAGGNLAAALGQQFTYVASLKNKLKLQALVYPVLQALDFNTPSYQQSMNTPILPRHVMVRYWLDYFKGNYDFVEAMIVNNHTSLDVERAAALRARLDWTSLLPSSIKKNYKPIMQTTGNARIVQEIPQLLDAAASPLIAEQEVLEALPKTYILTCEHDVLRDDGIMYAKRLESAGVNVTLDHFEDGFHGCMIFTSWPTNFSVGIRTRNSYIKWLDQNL

Monoglyceride lipase = target: T4, Monoglyceride lipase (Mus musculus, UniProt O35678); assay: Inhibition of FP-rhodamine probe binding to MGLL in mouse brain membrane proteome preincubated for 1 hr followed by FP-rhodamine addition and measured after 30 mins by SDS-PAGE based fluorescence assay; assay type: cell membranes
T4 sequence (O35678 whole entry): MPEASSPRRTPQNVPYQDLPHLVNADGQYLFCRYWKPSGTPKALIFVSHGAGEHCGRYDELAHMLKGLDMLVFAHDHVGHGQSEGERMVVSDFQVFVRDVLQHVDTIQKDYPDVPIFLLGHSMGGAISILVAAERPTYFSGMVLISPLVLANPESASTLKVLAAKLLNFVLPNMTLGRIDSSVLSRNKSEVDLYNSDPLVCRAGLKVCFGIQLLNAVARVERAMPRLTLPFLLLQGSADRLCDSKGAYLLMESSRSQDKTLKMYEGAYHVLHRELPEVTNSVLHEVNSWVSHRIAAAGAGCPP

[4] = Inhibition of recombinant rat FAAH deltaTM mutant expressed in Escherichia coli using 14C-labeled oleamide as substrate preincubated for 3 hrs followed by substrate addition and measured by TLC based Dixon-plot analysis; conditions: read-out: Ki(app)

| Ratio IC50 (Mus musculus) | IC50 [1] [µM] | IC50 [2] [µM] | IC50 [3] [µM] | IC50 (Monoglyceride lipase) [µM] | SMILES | Ki [4] [µM] |
| --- | --- | --- | --- | --- | --- | --- |
| 70 | 0.56 | > 100 | > 100 | 0.008 | N#Cc1cnn(C(=O)N2CCN(C(c3ccc4ccccc4c3)c3ccc4ccccc4c3)CC2)c1 |  |
| > 1000 | 130 | 790 | > 100 | 0.02 | N#Cc1cnn(C(=O)N2CCN(C(c3ccc(OCc4ccccc4)cc3)c3ccc(OCc4ccccc4)cc3)CC2)c1 | 25 |
